Laboratory results from patent US20180087027A1, “METHOD FOR […] OF HUMAN MESENCHYMAL STEM CELLS” (SEOUL NATIONAL UNIVERSITY HOSPITAL, priority 2015, published 2018).

Key:
Format in all cases: cell-based
[1] = tested on: Oct4 protein in human MSCs; experiment: Western blotting of Oct4 protein expression in human MSCs treated with ET-1
Method: To determine a level of expression of an Oct4 protein in human MSCs when the human MSCs were treated with ET-1, human MSCs purchased from Lonza were treated with an increasing concentration (0, 0.0125, 0.025, 0.125, and 0.25 μg/mL) of ET-1, and a level of protein expression was determined through western blotting.

[2] = tested on: Oct4 mRNA in human MSCs; experiment: Real time PCR of Oct4 mRNA expression in human MSCs treated with ET-1; details: RNA extracted 24 hours after ET-1 treatment, FIG. 2
Method: To compare levels of mRNA expression of Oct4 in human MSCs treated with ET-1, the human MSCs were treated with ET-1, and RNA was extracted therefrom after 24 hours to synthesize complementary cDNA. Thereafter, real time PCR was performed using the complementary cDNA as a template and Oct4 amplification primers set forth in the following SEQ ID NOs: 1 and 2.
SEQ ID NO: 1: 5′-gaggcaacct ggagaatttg-3′ (Oct4 forward primer)
SEQ ID NO: 2: 5′-tagcctgggg taccaaaatg-3′ (Oct4 reverse primer)

[3] = tested on: human MSCs; experiment: Real time gDNA PCR comparing length of telomeres in human MSCs treated with ET-1; details: 0.025 μg/mL ET-1, medium replaced after 24 hours, gDNA collected after 3 days; FIG. 3
Method: To check a change in a length of telomeres in human MSCs when the human MSCs were treated or were not treated with ET-1, the human MSCs were prepared so that the cells reached a confluency of 60% on a 60 mm plate. Before the human MSCs were treated with ET-1, a culture broth was replaced with a fresh culture broth. Thereafter, the human MSCs were treated with 0.025 μg/mL of ET-1, and the medium was replaced with a fresh culture broth after 24 hours. After 3 days, gDNA samples were collected. Then, real time gDNA PCR was performed using the samples to compare the lengths of the telomeres by means of ET-1 treatment.

[4] = tested on: human MSCs; experiment: G-banding karyotype analysis of chromosomal stability in human MSCs treated with ET-1; details: human MSCs treated with ET-1 as in Example 2, FIG. 4
Method: For this purpose, the G-banding karyotype analysis method known as a basic test method for evaluating genomic stability was performed. The G-banding karyotype analysis method is a method of pre-treating stem cells with trypsin, which is a proteolytic enzyme, and staining chromosomes with a Giemsa stain. In this case, euchromatin is stained with a light color, and heterochromatin is stained with a dark color. The G-banding karyotype analysis method is the test method most often used for chromosomal analysis because many staining bands are generated.

**Q.** Which results are given for endothelin-1 [ET-1]?
**A.** level of protein expression of Oct4 across the tested ET-1 concentrations ([1]; ET-1 at a concentration of 0.025 μg/mL, FIG. 1): highest level of protein expression; level of protein expression of the stemness marker Oct4 ([1]; human MSCs (Lonza) treated with 0, 0.0125, 0.025, 0.125 and 0.25 μg/mL ET-1, FIG. 1): significantly increased; mRNA expression of Oct4 [2]: increased; lengths of the telomeres versus MSCs not treated with ET-1 [3]: extended approximately three-fold or more; chromosomal stability (chromosomal dysfunction) [4]: chromosomal dysfunction was not induced
